Reference: patent publication US9089139B2, “Agri-horticultural pest control compositions comprising 4-(3-butynyl)aminopyrimidine derivatives” (SDS Biotech K. K., priority 2011, dated 2015)
Read-outs that look alike come from different tables or passages of the source.

Experiments:
Sphaerotheca fuliginea = assay: Test 1: control effect against powdery mildew on cucumber (control index); assay type: in vivo, Sphaerotheca fuliginea on cucumber (variety: SAGAMI HANJIRO); settings: for pest or weed control at 10 ppm: read-out: Control index; for pest or weed control at 0.5 ppm: test concentration 0.5 ppm
From the text: (§1) The expected efficacies of the combinations of the individual active compounds can be determined using Colby's formula, which is described below [Colby, S. R. “Calculating synergistic and antagonistic responses of herbicide combinations,” Weeds 15, 20-22 (1967)]: Colby's formula: E=A+B−(A×B/100) E is the predicted efficacy (control index) with reference to the untreated control when using the mixture of the active compound X at the concentration x and the active compound Y at the concentration y; A is the efficacy (control index) with respect to the untreated control when using the active compound X at the concentration x; B is the efficacy (control index) with respect to the untreated control when using the active compound […] at the concentration y.
(§2) Potted young seedlings of cucumber (variety: SAGAMI HANJIRO; in two-leaf stage) were sprayed with invention compounds formulated in accordance with Preparations and the existing antimicrobial active compounds listed in Table 3 (all compounds are identified by associated letters of the alphabet) after they were diluted with water to predetermined concentrations so that they would serve as active compounds; a spray gun was used to provide a spray rate of 15 ml per pot. After air-drying, the seedlings were inoculated with conida of Sphaerotheca fuliginea by spraying a suspension of the conida. Thereafter, the seedlings were cultivated for 14 days in a greenhouse and the percentage of diseased area was investigated for each leaf; based on the result of this investigation, the control index was calculated using the following formula: Control index={(percentage of diseased area on the untreated control−percentage of diseased area on treated sample)/percentage of diseased area on the untreated control}×100

[1] = system: Pseudoperonospora cubensis; assay: Control effect against Pseudoperonospora cubensis on cucumber seedlings (control index as in Test 1); assay type: in vivo; settings: for pest or weed control at 0.05 ppm: test concentration 0.05 ppm
From the text: as §1, §2
Potted young seedlings of cucumber (variety: SAGAMI HANJIRO; in two-and-a-half leaf stage) were sprayed with invention agri-horticulatural pest control compositions formulated in accordance with Preparations and the existing antimicrobial active compounds listed in Table 5 (all compounds are identified by associated letters of the alphabet) after they were diluted with water to predetermined concentrations so that they would serve as active compounds; a spray gun was used to provide a spray rate of 15 ml per pot. After air-drying, the seedlings were inoculated with conida of Pseudoperonospora cubensis by spraying a suspension of the conida. Immediately thereafter, the seedlings were held for a day under the conditions of 21° C. and 100% humidity. The seedlings were then placed at room temperature and 3 days later, the percentage of diseased area was investigated for each leaf; based on the result of this investigation, the control index was calculated as in Test 1.

Aphis gossypii = assay: Test 3: insecticidal effect on Aphis gossypii (mortality rate); assay type: in vivo
From the text: as §1
Invention compounds and the existing insecticidal active compounds shown in Table 7 (hereinbelow, the compound names are identified by associated letters of the alphabet) were diluted with water to predetermined concentrations so that they would serve as active ingredients. Cucumber leaves with a diameter of 3 cm were placed on plastic cups filled with 0.5% soft agar and five adult aphids were released to feed on the leaves. After standing overnight, the adult insects were removed and the number of nymph as an offspring was counted; each of the prepared liquid samples of insecticide was sprayed in 0.4 ml portions and two days later, the number of dead insects was countd to calculate the mortality rate. The expected efficacies of the combinations of the individual active compounds were calculated by Colby's formula.

[2] = individual active compound, test concentration 10 ppm
[3] = Podosphaera fuliginea, 336 h, individual active compound, test concentration 1 ppm
[4] = individual active compound, test concentration 1 ppm
[5] = Podosphaera fuliginea, 336 h, individual active compound, test concentration 100 ppm
[6] = individual active compound, test concentration 0.1 ppm
[7] = Podosphaera fuliginea, 336 h, individual active compound, test concentration 10 ppm
[8] = Podosphaera fuliginea, 336 h, individual active compound
[9] = Pseudoperonospora cubensis, 72 h, individual active compound, read-out: Observed value Control index
[10] = Aphis gossypii, 48 h, individual active compound, test concentration 0.1 ppm, read-out: Observed value Mortality rate

For `N#Cc1c(Cl)c(Cl)c(Cl)c(C#N)c1Cl` [Aa: Chlorothalonil, chlorothalonil], the pest or weed control at 5 ppm (Sphaerotheca fuliginea; Podosphaera fuliginea, 336 h, individual active compound, test concentration 5 ppm) was 48% and the pest or weed control at 0.5 ppm ([1]; Pseudoperonospora cubensis, 72 h, individual active compound, test concentration 0.5 ppm, read-out: Observed value Control index) was 49%.
With `COCC(=O)N(c1c(C)cccc1C)[C@H](C)C(=O)OC` [Ba: Metalaxyl M, metalaxyl-M] the “Observed value Control index” value [1, 2] was 35.
`COC(=O)NC(=S)Nc1ccccc1NC(=S)NC(=O)OC` [Ca: Thiophanate-methyl, thiophanate-methyl] showed a pest or weed control at 2 ppm (Sphaerotheca fuliginea; Podosphaera fuliginea, 336 h, individual active compound, test concentration 2 ppm) of 40%.
`CC(C)CC(C)c1sccc1NC(=O)c1cn(C)nc1C(F)(F)F` (centres unmarked) [Da: Penthiopyrad, penthiopyrad] showed a pest or weed control at 1 ppm (Sphaerotheca fuliginea; [3]) of 51%.
For `CO/C=C(/C(=O)OC)c1ccccc1Oc1cc(Oc2ccccc2C#N)ncn1` [Ea: Azoxystrobin, azoxystrobin], the Control index (Sphaerotheca fuliginea; individual active compound, test concentration 100 ppm) was 21 and the “Observed value Control index” value [1, 4] was 45.
`CO/N=C(/C(=O)OC)c1ccccc1COc1ccccc1C` [Eb: Kresoxim-methyl, kresoxim-methyl] was tested, and the pest or weed control at 100 ppm (Sphaerotheca fuliginea; [5]) was 29% and the pest or weed control at 1 ppm ([1]; Pseudoperonospora cubensis, 72 h, individual active compound, test concentration 1 ppm, read-out: Observed value Control index) was 42%.
In the case of `CON=C(C(=O)OC)c1ccccc1CON=C(C)c1cccc(C(F)(F)F)c1` [Ec: Trifloxystrobin, trifloxystrobin], the pest or weed control at 100 ppm (Sphaerotheca fuliginea; [5]) is reported as 24%.
Work on `COC(=O)N(OC)c1ccccc1COc1ccn(-c2ccc(Cl)cc2)n1` [Ed: Pyraclostrobin, pyraclostrobin] yielded a pest or weed control at 100 ppm (Sphaerotheca fuliginea; [5]) of 22%.
In the case of `CCC(Nc1ncnc(C)c1Cl)c1ccc(OC(F)F)cc1` (centres unmarked) [Fa: Diflumetorim, diflumetorim], the pest or weed control at 1 ppm (Sphaerotheca fuliginea; [3]) is reported as 42%.
Work on `Cc1ccc(-c2c(Cl)nc(C#N)n2S(=O)(=O)N(C)C)cc1` [Fb: Cyazofamid, cyazofamid] yielded a pest or weed control at 0.1 ppm ([1]; Pseudoperonospora cubensis, 72 h, individual active compound, test concentration 0.1 ppm, read-out: Observed value Control index) of 50%.
`Cc1c(Br)c2ccc(F)cc2n1S(=O)(=O)c1ncn(S(=O)(=O)N(C)C)n1` [Fc: Amisulbrom, amisulbrom] was tested, and the “Observed value Control index” value [1, 6] was 37.
Work on `CC1COC(Cn2cncn2)(c2ccc(Oc3ccc(Cl)cc3)cc2Cl)O1` (centres unmarked) [Ha: Difenoconazole, difenoconazole] yielded a pest or weed control at 10 ppm (Sphaerotheca fuliginea; [7]) of 27%.
`CC(C)(C)C(O)(CCc1ccc(Cl)cc1)Cn1cncn1` (centres unmarked) [Hb: Tebuconazole, tebuconazole] was tested, and the pest or weed control at 10 ppm (Sphaerotheca fuliginea; [7]) was 42%.
With `CC(C)(C)C(=O)C(Oc1ccc(Cl)cc1)n1cncn1` (centres unmarked) [Hc: Triadimefon, triadimefon] the pest or weed control at 100 ppm (Sphaerotheca fuliginea; [5]) was 21%.
`CCCOC/C(=N\c1ccc(Cl)cc1C(F)(F)F)n1ccnc1` [Hd: Triflumizole, triflumizole] showed a pest or weed control at 10 ppm (Sphaerotheca fuliginea; [7]) of 39%.
`CC(Cc1ccc(C(C)(C)C)cc1)CN1C[C@@H](C)O[C@@H](C)C1` (some centres unmarked) [He: Fenpropimorph, fenpropimorph] gave a pest or weed control at 100 ppm (Sphaerotheca fuliginea; [5]) of 12%.
In the case of `Fc1ccc(Oc2ccnc3cc(Cl)cc(Cl)c23)cc1` [Ia: Quinoxyfen, quinoxyfen], the pest or weed control at 1 ppm (Sphaerotheca fuliginea; [3]) is reported as 39%.
`COc1ccc(C(=CC(=O)N2CCOCC2)c2ccc(Cl)cc2)cc1OC` [Ja: Dimethomorph, dimethomorph] showed a pest or weed control at 5 ppm ([1]; Pseudoperonospora cubensis, 72 h, individual active compound, test concentration 5 ppm, read-out: Observed value Control index) of 21%.
`CC(C)OC(=O)N[C@H](C(=O)N[C@H](C)c1nc2ccc(F)cc2s1)C(C)C` [Jb: Benthiavalicarb-isopropyl, benthiavalicarb] was tested, and the pest or weed control at 0.5 ppm ([1]; Pseudoperonospora cubensis, 72 h, read-out: Observed value Control index) was 12%.
For `C#CCOc1ccc(CCNC(=O)C(OCC#C)c2ccc(Cl)cc2)cc1OC` (centres unmarked) [Jc: Mandipropamid, mandipropamid], the “Observed value Control index” value ([1]; individual active compound, test concentration 0.5 ppm) was 21.
`CSC(=O)c1cccc2nnsc12` [Ma: Acibenzolar-S-methyl, acibenzolar-5-methyl] gave a Control index (Sphaerotheca fuliginea; [2]) of 38.
`CCNC(=O)NC(=O)/C(C#N)=N/OC` [Na: Cymoxanil, cymoxanil] showed a pest or weed control at 10 ppm ([1]; Pseudoperonospora cubensis, 72 h, individual active compound, test concentration 10 ppm, read-out: Observed value Control index) of 45%.
Compound `Cc1ccc2nc3sc(=O)sc3nc2c1` [Nb: Chinomethionate, chinomethionat] has a pest or weed control at 10 ppm (Sphaerotheca fuliginea; Podosphaera fuliginea, 336 h) of 38%.
For `O=C(Cc1ccccc1)N/C(=N\OCC1CC1)c1c(C(F)(F)F)ccc(F)c1F` [Nc: Cyflufenamid, cyflufenamid], the pest or weed control at 1 ppm (Sphaerotheca fuliginea; [3]) was 49%.
Work on `COc1ccccc1N1CCS/C1=C(/C#N)Sc1cc(C(F)(F)F)ccc1F` [Nd: Flutianil, flutianil] yielded a Control index (Sphaerotheca fuliginea; [4]) of 42.
`COP(=O)(NC(C)=O)SC` (centres unmarked) [P: Acephate, acephate, reference compound] showed a pest or weed control at 10 ppm (Aphis gossypii; Aphis gossypii, 48 h, read-out: Observed value Mortality rate) of 47%.
`O=[N+]([O-])NC1=NCCN1Cc1ccc(Cl)nc1` [Q: Imidacloprid, imidacloprid, reference compound] showed a pest or weed control at 0.01 ppm (Aphis gossypii; Aphis gossypii, 48 h, individual active compound, test concentration 0.01 ppm, read-out: Observed value Mortality rate) of 50%.
Work on `CCc1nn(C)c(C(=O)NCc2ccc(Oc3ccc(C)cc3)cc2)c1Cl` [R: Tolfenpyrad, tolfenpyrad, reference compound] yielded a pest or weed control at 0.5 ppm (Aphis gossypii; Aphis gossypii, 48 h, individual active compound, test concentration 0.5 ppm, read-out: Observed value Mortality rate) of 48%.
For `CC1(C)[C@H](C(=O)O[C@H](C#N)c2cccc(Oc3ccccc3)c2)[C@@H]1/C=C\C(=O)OC(C(F)(F)F)C(F)(F)F` [S: Acrinathrin], the “Observed value Mortality rate” value (Aphis gossypii; [6]) was 35.
For `N#CCNC(=O)c1cnccc1C(F)(F)F` [T: Flonicamid, flonicamid, reference compound], the “Observed value Mortality rate” value (Aphis gossypii; [4]) was 43.
In the case of `CC(=O)N1C(=O)N(NCc2cccnc2)Cc2cc(C(F)(C(F)(F)F)C(F)(F)F)ccc21` [U: Pyrifluquinazon, pyrifluquinazon, reference compound], the “Observed value Mortality rate” value (Aphis gossypii; individual active compound, test concentration 0.01 ppm) is reported as 40.
For `FCc1ccccc1C#CCCNc1ncnc2ccccc12` [compound 99], the pest or weed control at 0.5 ppm (Sphaerotheca fuliginea; [8]) was 53%, the pest or weed control at 0.05 ppm [1, 9] was 46% and the pest or weed control at 0.1 ppm (Aphis gossypii; [10]) was 44%.
`FC(F)c1ccccc1C#CCCNc1ncnc2ccccc12` [compound 100] was tested, and the pest or weed control at 0.5 ppm (Sphaerotheca fuliginea; [8]) was 55%, the pest or weed control at 0.05 ppm [1, 9] was 42% and the pest or weed control at 0.1 ppm (Aphis gossypii; [10]) was 40%.
`FC(F)(F)c1ccccc1C#CCCNc1ncnc2ccccc12` [compound 101] showed a pest or weed control at 0.5 ppm (Sphaerotheca fuliginea; [8]) of 56%, a pest or weed control at 0.05 ppm [1, 9] of 38% and a pest or weed control at 0.1 ppm (Aphis gossypii; [10]) of 36%.
Compound `COCc1ccccc1C#CCCNc1ncnc2ccccc12` [compound 133] has a pest or weed control at 0.5 ppm (Sphaerotheca fuliginea; [8]) of 49%, a pest or weed control at 0.05 ppm [1, 9] of 41% and a pest or weed control at 0.1 ppm (Aphis gossypii; [10]) of 39%.
`COCc1cc(F)ccc1C#CCCNc1ncnc2ccccc12` [compound 139] showed a pest or weed control at 0.5 ppm (Sphaerotheca fuliginea; [8]) of 51%, a pest or weed control at 0.05 ppm [1, 9] of 43% and a pest or weed control at 0.1 ppm (Aphis gossypii; [10]) of 41%.
With `COCc1cc(Cl)ccc1C#CCCNc1ncnc2ccccc12` [compound 140] the pest or weed control at 0.5 ppm (Sphaerotheca fuliginea; [8]) was 48%, the pest or weed control at 0.05 ppm [1, 9] was 45% and the pest or weed control at 0.1 ppm (Aphis gossypii; [10]) was 43%.
`COCc1cc(C)ccc1C#CCCNc1ncnc2ccccc12` [compound 145] gave a pest or weed control at 0.5 ppm (Sphaerotheca fuliginea; [8]) of 45%, a pest or weed control at 0.05 ppm [1, 9] of 37% and a pest or weed control at 0.1 ppm (Aphis gossypii; [10]) of 35%.
`OCC1=C(C#CCCNc2ncnc3ccccc23)CCCC1` [compound 390] was tested, and the pest or weed control at 0.5 ppm (Sphaerotheca fuliginea; [8]) was 51%, the pest or weed control at 0.05 ppm [1, 9] was 38% and the pest or weed control at 0.1 ppm (Aphis gossypii; [10]) was 41%.
With `FCC1=C(C#CCCNc2ncnc3ccccc23)CCCC1` [compound 391] the pest or weed control at 0.5 ppm (Sphaerotheca fuliginea; [8]) was 48%, the pest or weed control at 0.05 ppm [1, 9] was 41% and the pest or weed control at 0.1 ppm (Aphis gossypii; [10]) was 43%.
In the case of mancozeb [Ac: Manzeb], the “Observed value Control index” value [1, 4] is reported as 52.
